Data published in ChEMBL document CHEMBL1132991, “Conformational selection of inhibitors and substrates by proteolytic enzymes: implications for drug design and polypeptide processing” (J Med Chem, 2000).
Blank lines part the entries; values can stand above or below the molecule they belong to.

Target: Human immunodeficiency virus type 1 protease (Human immunodeficiency virus 1, UniProt Q72874)
Test: binding affinity towards HIV-1 Protease enzyme

SMILES: CC[C@H](C)[C@H](NC(=O)[C@H](Cc1ccccc1)NC[C@H](O)[C@@H]1Cc2ccc(cc2)OCCCC(=O)N[C@@H](CC(N)=O)C(=O)N1)C(=O)N[C@H](C(N)=O)C(C)C
Ki: 12 nM

SMILES: CC(C)C[C@H](CC(=O)NO)C(=O)N[C@H]1Cc2cn(c3ccccc23)CCCCCCNC1=O
Ki: 1 nM

SMILES: CC(C)C[C@@H](NC(=O)[C@H](O)COS(=O)(=O)O)C(=O)N[C@@H]1C(=O)N[C@@H](CCCNC(=N)N)C(=O)N[C@H]2CC[C@H](O)N(C2=O)[C@@H](CC(C)C)C(=O)N(C)[C@H](Cc2ccc(O)cc2)C(=O)N[C@H](C(C)C)C(=O)O[C@@H]1C [PROTEOLYTIC ENZYME INHIBITOR]
Ki: 1 nM

SMILES: CC[C@@H](C)[C@H](NC(=O)[C@H](Cc1ccccc1)NC(=O)[C@H](Cc1ccccc1)NC(=O)[C@@H](NC(=O)[C@H](CC(C)C)NC(C)=O)C(C)C)C(=O)N[C@H](C(N)=O)C(C)C
Ki: 60000 nM

SMILES: CC[C@H](C)[C@@H]1NC(=O)[C@@H](NC(=O)[C@@H]2Cc3ccc(cc3)OCCCCC(=O)N[C@@H](C(C)C)C(=O)N2)Cc2ccc(cc2)OCCCNC1=O
Ki: 800 nM

More lines, in order of falling Ki, values ahead:

Ki: 10 nM
SMILES: N=C(N)NCCC[C@H]1NC(=O)[C@@H]2CCCN2C(=O)[C@@H](NC=O)CNC(=O)/C=C/C(Cc2ccc(O)cc2)NC(=O)[C@@H](Cc2ccccc2)NC(=O)C1=O (stereo partly drawn)

Ki: 4 nM
SMILES: CC[C@H](C)[C@@H]1NC(=O)[C@@H](C(N)C[C@@H](O)C(Cc2ccccc2)NC(=O)OC(C)(C)C)Cc2ccc(cc2)OCCCNC1=O (stereo partly drawn)

Ki: 3 nM
SMILES: CC[C@H](C)[C@@H]1NC(=O)[C@@H](C(N)C[C@@H](O)[C@@H]2Cc3ccc(cc3)OCCCCC(=O)N[C@@H](C(C)C)C(=O)N2)Cc2ccc(cc2)OCCCNC1=O (stereo partly drawn)
